Data reported in US7048926B2, “Methods of agonizing and antagonizing FabK” (priority 2000, dated 2006).
Converted amounts (≈) assume the structure as drawn. Read-outs that look alike come from different tables or passages of the source.

Columns and labels:
[1] = target: T1, S. pneumoniae FabK (Streptococcus pneumoniae, UniProt Q9FBC5, T318A); experiment: FabK enoyl-ACP reductase assay (NADH oxidation at 340 nm); assay type: biochemical; settings: for inhibition of FabK (in words): 25 uM crotonoyl ACP, 50 uM NADH, 1.25 nM enzyme
T1 construct: made in house
Method: FabK catalyses the reduction of enoyl-ACPs with the concommitant oxidation of NADH. Crotonoyl-ACP can be prepared as described below. The reduction of crotonoyl-ACP to butyryl-ACP can be monitored by following the change in absorbance at 340 nm as NADH is oxidised.
(§1) Assays were carried out in Costar 3696 half-area plates in a final assay volume of 150 ul on a Spectramax platereader. Substrates, NADH and crotonoyl ACP, were incubated with FabK enzyme in 100 mM N-[2-acetamido]-2 irminodiacetic acid (ADA), pH 6.5, 100 mM NH4Cl, 4% glycerol at 30° C. and the reaction monitored at 340 nm. This assaying can also be performed using crotonyl CoA, NADPH or an NADH analogue as a substrate.
(§2) Using the above assay, compounds can be tested for inhibition of FabK. 30 ul of a candidate compounds is added to a well of the plate. 30 ul of a 250 uM stock of NADH is then added to the well. 60 ul of a 67.5 uM stock of Crotonoyl ACP is added to the well. The plate is incubated at 30° C. for 5 min. 30 ul of a 6.25 nM stock of enzyme is then added to the well (also preincubated at 30° C.) to initiate the reaction. The plate is then monitored at A340 nm for 30 min at 30° C. Positive controls are reactions without compound. Negative controls are reactions without enzyme and without compound. Final concentrations in the assay mixture are 25 uM crotonoyl ACP, 50 uM NADH, 1.25 nM enzyme.

[2] = test system: FabI; experiment: FabI assay, enzyme source not stated; assay type: biochemical
Method: (§3) FabI catalyses the reduction of enoyl-ACPs with the concommitant oxidation of NAD(P)H. Crotonoyl-ACP can be prepared as described in patent applications numbered PCT/US00/12104 and EP1997000306506. The reduction of enoyl-ACPs can be monitored by following the change in absorbance at 340 nm as NADH is oxidised. Enoyl ACPs (eg crotonoyl-ACP) can be replaced by enoyl-CoAs (eg crotonoyl-CoA)
as §1, with “FabI” for “FabK”, “iminodiacetic” for “irminodiacetic”, “6.5,” for “6.5, 100 mM NH4Cl,”, “substrate, or using a substrate suitable for FabK, such as those described above.” for “substrate.”
as §2, with “FabI.” for “FabK.”, “Negative controls are reactions without enzyme and without compound. Final concentrations in the assay mixture are 25 uM crotonoyl ACP, 50 uM NADH, 1.25 nM enzyme.” left out

[3] = target: S. aureus FabI (Staphylococcus aureus, UniProt Q6GI75); experiment: FabI assay, S. aureus enzyme; assay type: biochemical
Method: as §3
as §1, with “FabI” for “FabK”, “iminodiacetic” for “irminodiacetic”, “6.5,” for “6.5, 100 mM NH4Cl,”, “substrate, or using a substrate suitable for FabK, such as those described above.” for “substrate.”
as §2, with “FabI.” for “FabK.”, “Negative controls are reactions without enzyme and without compound. Final concentrations in the assay mixture are 25 uM crotonoyl ACP, 50 uM NADH, 1.25 nM enzyme.” left out

[4] = target: E. coli FabI (Escherichia coli, UniProt P0AEK4); experiment: FabI assay, E. coli enzyme; assay type: biochemical
Method: as §3
as §1, with “FabI” for “FabK”, “iminodiacetic” for “irminodiacetic”, “6.5,” for “6.5, 100 mM NH4Cl,”, “substrate, or using a substrate suitable for FabK, such as those described above.” for “substrate.”
as §2, with “FabI.” for “FabK.”, “Negative controls are reactions without enzyme and without compound. Final concentrations in the assay mixture are 25 uM crotonoyl ACP, 50 uM NADH, 1.25 nM enzyme.” left out

[5] = test system: E. faecalis 7; experiment: Antibacterial MIC; assay type: cell-based
[6] = test system: S. aureus Oxford; experiment: Antibacterial MIC; assay type: cell-based; settings: Staphylococcus aureus, read-out: Antibacterial MIC
[7] = test system: S. pneumoniae ERY2; experiment: Antibacterial MIC; assay type: cell-based; settings: Streptococcus pneumoniae, ERY2, read-out: Antibacterial MIC
[8] = test system: M. catarrhalis; experiment: Antibacterial MIC; assay type: cell-based; settings: Moraxella catarrhalis, read-out: Antibacterial MIC
[9] = test system: E. coli AcrAB^−; experiment: Antibacterial MIC; assay type: cell-based; settings: Escherichia coli, read-out: Antibacterial MIC
[10] = test system: S. pneumoniae N1387; experiment: Antibacterial MIC; assay type: cell-based; settings: Streptococcus pneumoniae
[11] = test system: S. pneumoniae 1629; experiment: Antibacterial MIC; assay type: cell-based
[12] = test system: S. aureus WCUH29; experiment: Antibacterial MIC; assay type: cell-based; settings: Staphylococcus aureus
[13] = test system: E. faecalis 1; experiment: Antibacterial MIC; assay type: cell-based; settings: Enterococcus faecalis, 1, read-out: Antibacterial MIC
[14] = test system: H. influenzae NEMC1; experiment: Antibacterial MIC; assay type: cell-based; settings: Haemophilus influenzae
[15] = test system: H. influenzae Q1; experiment: Antibacterial MIC; assay type: cell-based; settings: Haemophilus influenzae

T1 sequence (Q9FBC5 whole entry T318A): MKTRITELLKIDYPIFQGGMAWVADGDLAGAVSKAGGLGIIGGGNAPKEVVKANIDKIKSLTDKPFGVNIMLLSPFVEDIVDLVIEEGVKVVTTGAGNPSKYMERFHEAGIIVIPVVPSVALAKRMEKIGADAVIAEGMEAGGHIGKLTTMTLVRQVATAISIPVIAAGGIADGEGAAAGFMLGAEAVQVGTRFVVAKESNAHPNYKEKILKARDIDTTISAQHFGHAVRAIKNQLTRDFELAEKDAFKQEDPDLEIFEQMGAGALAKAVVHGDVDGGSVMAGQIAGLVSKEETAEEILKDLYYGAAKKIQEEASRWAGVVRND
Sequence of E. coli FabI (P0AEK4 whole entry): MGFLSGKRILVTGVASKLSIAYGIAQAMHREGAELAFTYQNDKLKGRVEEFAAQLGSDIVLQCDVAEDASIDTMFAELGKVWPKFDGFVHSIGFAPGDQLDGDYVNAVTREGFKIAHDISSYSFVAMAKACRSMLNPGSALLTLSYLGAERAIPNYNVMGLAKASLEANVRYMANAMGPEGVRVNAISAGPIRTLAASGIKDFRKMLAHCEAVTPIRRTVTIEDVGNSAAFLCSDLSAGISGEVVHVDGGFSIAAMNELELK
Sequence of S. aureus FabI (Q6GI75 whole entry): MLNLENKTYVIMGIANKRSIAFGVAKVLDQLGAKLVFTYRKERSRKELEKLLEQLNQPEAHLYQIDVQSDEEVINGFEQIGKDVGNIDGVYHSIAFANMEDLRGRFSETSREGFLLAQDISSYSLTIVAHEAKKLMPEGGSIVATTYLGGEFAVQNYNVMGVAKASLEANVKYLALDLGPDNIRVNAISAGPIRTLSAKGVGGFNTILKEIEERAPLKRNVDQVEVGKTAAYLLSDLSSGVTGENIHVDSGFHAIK

**Q.** For `Cc1[nH]c2ccccc2c1CN(C)C(=O)/C=C/c1cnc2c(c1)CCC(=O)N2` [Formula II], which “inhibition of FabK (in words)” value [1] is on record?
**A.** inhibit

**Q.** What about the “inhibition of FabI (in words)” value [2] of the same compound?
**A.** inhibit

**Q.** With `CN(Cc1cn(C)c2ccccc12)C(=O)/C=C/c1cnc2c(c1)CCC(=O)N2` [Formula I] as the compound, how does the “inhibition of FabK (in words)” value [1] read?
**A.** inhibit

**Q.** What about the “inhibition of FabI (in words)” value [2] of the same compound?
**A.** inhibit

**Q.** With `Cl.N` [NH4^+] as the compound, how does the “activation of FabK reaction over the reaction with no monovalent cations” value ([1]; NH4^+ at 100 mM) read?
**A.** about 300 fold

**Q.** For `CN(Cc1cn(C)c2ccccc12)C(=O)/C=C/c1cnc2c(c1)CCC(=O)N2` [SB-611113], which IC50 [3] is on record?
**A.** 0.1 µM

**Q.** And the IC50 [4]?
**A.** < 0.06 µM

**Q.** What about the MIC ([5]; Enterococcus faecalis, 7, read-out: Antibacterial MIC) of the same compound?
**A.** 16 µg/mL (≈ 42.7 µM)

**Q.** And the MIC [6]?
**A.** ≤ 0.06 µg/mL

**Q.** And the MIC [7]?
**A.** 8 µg/mL (≈ 21.4 µM)

**Q.** What about the MIC [8] of the same compound?
**A.** ≤ 0.06 µg/mL

**Q.** What about the MIC [9] of the same compound?
**A.** 8 µg/mL (≈ 21.4 µM)

**Q.** What about the MIC ([10]; N1387, read-out: Antibacterial MIC) of the same compound?
**A.** 16 µg/mL (≈ 42.7 µM)

**Q.** What about the IC50 [1] of the same compound?
**A.** 5.7 µM

**Q.** And the MIC ([11]; Streptococcus pneumoniae, 1629, read-out: Antibacterial MIC)?
**A.** 8 µg/mL (≈ 21.4 µM)

**Q.** And the MIC ([12]; WCUH29, read-out: Antibacterial MIC)?
**A.** ≤ 0.06 µg/mL

**Q.** And the MIC [13]?
**A.** 16 µg/mL (≈ 42.7 µM)

**Q.** What about the MIC ([14]; NEMC1, read-out: Antibacterial MIC) of the same compound?
**A.** 32 µg/mL (≈ 85.5 µM)

**Q.** And the MIC ([15]; Q1, read-out: Antibacterial MIC)?
**A.** 16 µg/mL (≈ 42.7 µM)

**Q.** For `Cc1[nH]c2ccccc2c1CN(C)C(=O)/C=C/c1cnc2c(c1)CCC(=O)N2` [SB-641197], which MIC ([5]; Enterococcus faecalis, E. faecalis 7, read-out: Antibacterial MIC) is on record?
**A.** 16 µg/mL (≈ 42.7 µM)

**Q.** What about the MIC [6] of the same compound?
**A.** ≤ 0.06 µg/mL

**Q.** And the MIC [7]?
**A.** 8 µg/mL (≈ 21.4 µM)

**Q.** And the MIC ([8]; M. catarrhalis)?
**A.** ≤ 0.06 µg/mL

**Q.** What about the MIC [9] of the same compound?
**A.** 0.5 µg/mL (≈ 1.34 µM)

**Q.** What about the MIC ([10]; S. pneumoniae N1387, read-out: Antibacterial MIC) of the same compound?
**A.** 16 µg/mL (≈ 42.7 µM)

**Q.** And the IC50 [1]?
**A.** 5.2 µM

**Q.** What about the MIC ([11]; Streptococcus pneumoniae, S. pneumoniae 1629, read-out: Antibacterial MIC) of the same compound?
**A.** 8 µg/mL (≈ 21.4 µM)

**Q.** What about the MIC ([12]; S. aureus WCUH29, read-out: Antibacterial MIC) of the same compound?
**A.** ≤ 0.06 µg/mL

**Q.** And the MIC [13]?
**A.** 16 µg/mL (≈ 42.7 µM)

**Q.** What about the MIC ([14]; H. influenzae NEMC1, read-out: Antibacterial MIC) of the same compound?
**A.** 2 µg/mL (≈ 5.34 µM)

**Q.** And the MIC ([15]; H. influenzae Q1, read-out: Antibacterial MIC)?
**A.** 1 µg/mL (≈ 2.67 µM)
